In patent US11542304B2, “Multimeric bicyclic peptide ligands” (BicycleTx Limited, priority 2018, dated 2023):

How the values were obtained:
[1] = Pharmacokinetics of Bicycle multimers in CD-1 mice; details: 5 mg/kg IV, male CD-1 mice; FIGS. 5A and 5B
Experimental: Male CD-1 mice were dosed with 5 mg/kg of each Bicycle multimer formulated in 25 mM Histidine HCl, 10% sucrose pH 7 via tail vein injection. Serial bleeding (about 80 μL blood/time point) was performed via submandibular or saphenous vein at each time point. All blood samples were immediately transferred into prechilled microcentrifuge tubes containing 2 μL K2-EDTA (0.5M) as anti-coagulant and placed on wet ice. Blood samples were immediately processed for plasma by centrifugation at approximately 4° C., 3000 g. The precipitant including internal standard was immediately added into the plasma, mixed well and centrifuged at 12,000 rpm, 4° C. for 10 minutes. The supernatant was transferred into pre-labeled polypropylene microcentrifuge tubes, and then quick-frozen over dry ice. The samples were stored at 70° C. or below as needed until analysis. 7.5 μL of the supernatant samples were directly injected for LC-MS/MS analysis using an Orbitrap Q Exactive in positive ion mode to determine the concentrations of Bicycle multimer. Plasma concentration versus time data were analyzed by non-compartmental approaches using the Phoenix WinNonlin 6.3 software program. C0, Cl, Vdss, T1/2, AUC(0-last), AUC(0-inf), MRT(0-last), MRT(0-inf) and graphs of plasma concentration versus time profile were reported.

CD137 [2] = target: T1, CD137 (Homo sapiens, UniProt Q07011); assay: CD137 Promega reporter cell activity assay (NF-κB luciferase in Jurkat cells)
Experimental: CD137 binding multimers were evaluated for CD137 using a Reporter cell activity assay that uses NF-κB luciferase luminescence as a read-out of CD137 activation in Jurkat cells. […] Samples were diluted at concentration expected to give the maximum fold induction and then titrated down in 1/3 dilution series or 1/10 dilution series in a sterile 96 well-plate. […] 50 μl cells were added per well to white cell culture plates.
Cells were co-incubated together with agonists for 6 h at 37° C., 5% CO2. After 6 h Bio-Glo™ was thawed and the assay developed at room-temperature. 75 ul Bio-Glo™ was added per well and incubated for 5-10 min. Luciferase signal was read on a Pherastar plate-reader using MARS program. Data was analysed by transforming the data to x=log (X), then plotting log (agonist) vs. response variable slope (4 parameters) to calculate EC50 values.

[3] = tested on: Pan T-cells (isolated from human PBMCs); assay: T-cell cytokine release assay; type: cell-based; details: anti-CD3 stimulated T cells, 48 hours; FIG. 14
Experimental: Healthy human buffy coat was purchased from the Sylvan N. Goldman Oklahoma Blood Institute and shipped fresh. Peripheral blood mononuclear cells (PBMCs) were isolated by Ficoll density gradient centrifugation. Red blood cells were lysed with ACK (Ammonium-Chloride-Potassium) lysis buffer. Pan T-cells were then isolated from total PBMCs using negative magnetic bead selection (Miltenyi MACS human Pan-T cell isolation kit). Pan T-cells were then plated on anti-CD3 coated 96-well plates (0.5 μg/mL) in culture media (RPMI1640 with 10% FBS) plus or minus compounds. Supernatant from cultures was collected after 24 and 48 hours. Cytokine [i.e., interleukin-2 (IL-2), interferon gamma (IFNγ)] release in supernatant was measured by HTRF assay (CisBio) according to the kit's instructions. HTRF assay plates were read on a Clariostar plate reader (BMG Labtech) at 665 nm and 620 nm. Data was analyzed and extrapolated to a standard curve according to the HTRF kit instruction in Prism and Excel. Cytokine release fold change was calculated by dividing the pg/mL of cytokine detected by background cytokine released (CD3 stimulation alone). Data was graphed in Prism as the mean of replicates with standard deviation error bars.

MC38 syngeneic tumors = assay: In vivo efficacy in MC38 syngeneic tumors in C57BL/6J B-h4-1BB humanized mice; details: 20 or 30 mg/kg i.v. QAD × 6; compared to CD137 monoclonal antibody agonist; FIG. 7
Experimental: The MC38 murine colon carcinoma cell line was purchased from Shunran Shanghai Biological Technology Co., Ltd. The cells will be maintained in vitro as monolayer culture in Dulbecco's Modified Eagle's medium (DMEM) supplemented with 10% heat inactivated fetal calf serum, 100 U/mL penicillin and 100 μg/mL streptomycin at 37° C. in an atmosphere of 5% CO2. The tumor cells will be routinely subcultured twice weekly by trypsin-EDTA treatment. Cells growing in an exponential growth phase will be harvested and counted for tumor inoculation. 6-8 week old female C57BL/6J B-h4-1BB humanized mice were subcutaneously injected (in the flank) with MC38 tumor cells (5×10^5) with 0.1 mL PBS for tumor development. Tumor-bearing animals were randomly enrolled into six study groups when the mean tumor size reached approximately 113 mm^3 (Study 1) or 107 mm^3 (Study 2). The test and positive control articles were administrated to the tumor-bearing mice according to predetermined regimens as shown below.
Test articles were formulated in aqueous vehicle (25 mM Histidine, 10% sucrose pH=7) and administered intravenously or intraperitoneally. CD137 monoclonal antibody agonist was administered by intraperitoneal injection in 0.9% saline.
Tumor volume was measured three times a week in two dimensions using a caliper, and the volume was expressed in mm3 using the formula: V=0.5a×b2 where a and b were the long and short diameters of the tumor, respectively. Results are represented by mean and the standard deviation (Mean±SD).
In study 2, mice were sacrificed 21 days after treatment initiation and tumors were harvested for T-cell analysis by flow cytometry. Tumor were cut into small pieces and filtered through a 70 micrometer filter. Lymphocytes were isolated using Histopaque 1083 and resuspended in RPMI 1640 supplemented with 10% fetal bovine serum. Lymphocytes were stained with a cell viability dye (Zombie NIR, Biolegend, #423106) and a panel of antibodies including anti-mouse CD45 (Biolegend, #103138), anti-mouse CD3 (Biolegend, #100328), anti-mouse CD4 (Biolegend, #100438), anti-mouse CD8 (Biolegend, #100759). Stained cells were analysed by Attune N×T Flow Cytometer. T-cell results are expressed as % of CD3+ cells among CD45+ cells. CD8+ T-cell results are expressed as % of CD8+ cells among CD45+CD3+ cells. CD4+ T-cell results are expressed as % of CD4+ cells among CD45+CD3+ cells. Results are represented by mean and the standard deviation (Mean±SD) and the individual values.
Statistical analysis: Data was analyzed using 2way ANOVA or ordinary One-way ANOVA with Dunnett's test for multiple comparisons, and P<0.05 was considered to be statistically significant. Both statistical analysis and biological observations are taken into consideration. ***p<0.001, **p<0.01, *p<0.05.

[4] = tested on: melanoma patient tumour samples; assay: Ex vivo human tumour cell kill assay (3D spheroid culture); details: 48 hours
Experimental: Two frozen, dissociated melanoma patient tumour samples were purchased from Folio Conversant. Cells were thawed quickly at 37° C. and pipetted into 10 mL of Wash Medium [DMEM/F12+1× Penicillin/Streptomycin+50 μg/mL Gentamycin+100 μg/mL G418+100 μg/mL Hygromycin+1× Insulin-Transferrin-Selenium (ITS)+10 mM HEPES] with 1 mg/mL DNaseI added fresh. Cell counts were performed using a haemocytometer and a 1:2 dilution with 0.04% Trypan blue. Cells were spun down and resuspended in Growth Medium [EmbryoMax DMEM+10% heat-inactivated FBS+1× Penicillin/Streptomycin+50 μg/mL Gentamycin+1× GlutaMAX+1 mM Sodium pyruvate+1×ITS+0.4% BSA+4.5 g/L glucose+2.3 g/L sodium bicarbonate+10 mM HEPES+10 ng/mL basic fibroblast growth factor (bFGF)+20 ng/mL epidermal growth factor (EGF)] at 5×10^5 cells/mL. Cells were magnetized as described in the N3D Biosciences manufacturer's protocol. Briefly, NanoShuttle (NS) is added at 1 μL to 1×10^4 cells and mixed in by pipetting. […] Flow cytometry panels used in this experiment analysed the number of lymphocytes and tumour cells present on Days 0 and 2. Tumour cell killing was determined by the decrease in the number of CD45 negative cells in the treated wells versus the untreated control (FIG. 12)—significance was calculated using a 2-way ANOVA.

CD137 [5] = target: T1, CD137; assay: CD137 reporter cell activity washout assay; type: cell-based; design: host or cells: Jurkat cells; details: 10 nM, exposure 30, 60 or 120 minutes, total 6 hours; FIG. 13
Experimental: Jurkat cells engineered to overexpress CD137 and express a luciferase gene under the NF-κB promoter were purchased from Promega. The reporter cells were incubated with 10 nM of CD137 agonists for the indicated times at 37° C. in RPMI1640 media with 1% FBS. After either 30, 60, or 120 minutes, cells were washed in an excess of culture media and resuspended in 75 μL of fresh media. A no washout condition was also included. All washout conditions were performed in duplicate. Cells then continued to incubate for a total of 6 hours (an additional 5.5, 5, or 4 hours respective to exposure times). After incubation, 75 μL of Bio-Glo reagent (Promega) was added to each well and allowed to equilibrate for 10 minutes at room temperature. Luminescence was read on the Clariostar plate reader (BMG LabTech). Fold induction was calculated by dividing the luminescence signal by background wells (reporter cells with no agonist added). The percent of the maximum fold induction was calculated by dividing the fold induction of the washout time by the fold induction of the no washout condition and multiplying by 100.

T1 sequence (Q07011 24-255): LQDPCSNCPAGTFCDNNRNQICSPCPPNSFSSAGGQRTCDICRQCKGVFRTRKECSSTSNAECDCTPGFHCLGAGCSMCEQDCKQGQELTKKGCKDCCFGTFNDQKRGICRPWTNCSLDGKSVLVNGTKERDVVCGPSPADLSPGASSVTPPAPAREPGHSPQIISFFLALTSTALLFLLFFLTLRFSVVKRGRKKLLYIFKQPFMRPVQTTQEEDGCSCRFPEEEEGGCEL

CCCC[C@@H]1NC(=O)[C@H](Cc2ccc(O)cc2)NC(=O)[C@@H]2CCCN2C(=O)[C@H](CC(=O)O)NC(=O)[C@H](C)NC(=O)[C@H](Cc2ccccc2)NC(=O)[C@@H]2CSCCC(=O)N3CN(CN(C3)C(=O)CCSC[C@@H](C(=O)N[C@@H](C)C(N)=O)NC1=O)C(=O)CCSC[C@H](NC(=O)[C@H](C)NC(C)=O)C(=O)N[C@@H]([C@@H](C)CC)C(=O)N[C@@H](CCC(=O)O)C(=O)N[C@@H](CCCCNC(=O)CCc1cn(CCOCCOCCOCCOCCOCCOCCOCCOCCOCCOCCOCCOCCOCCOCCOCCOCCOCCOCCOCCOCCOCCOCCOCCNC(=O)CCOCC(COCCC(=O)NCCOCCOCCOCCOCCOCCOCCOCCOCCOCCOCCOCCOCCOCCOCCOCCOCCOCCOCCOCCOCCOCCOCCOCCn3cc(CCC(=O)NCCCC[C@@H]4NC(=O)[C@H](CCC(=O)O)NC(=O)[C@H]([C@@H](C)CC)NC(=O)[C@@H](NC(=O)[C@H](C)NC(C)=O)CSCCC(=O)N5CN6CN(C5)C(=O)CCSC[C@H](NC(=O)[C@H](Cc5ccc(O)cc5)NC(=O)[C@H](CCC(N)=O)NC(=O)CNC4=O)C(=O)N[C@@H](Cc4ccccc4)C(=O)N[C@@H](C)C(=O)N[C@@H](CC(=O)O)C(=O)N4CCC[C@H]4C(=O)N[C@@H](Cc4ccc(O)cc4)C(=O)N[C@@H](CCCC)C(=O)N[C@H](C(=O)N[C@@H](C)C(N)=O)CSCCC6=O)nn3)(COCCC(=O)NCCOCCOCCOCCOCCOCCOCCOCCOCCOCCOCCOCCOCCOCCOCCOCCOCCOCCOCCOCCOCCOCCOCCOCCn3cc(CCC(=O)NCCCC[C@@H]4NC(=O)[C@H](CCC(=O)O)NC(=O)[C@H]([C@@H](C)CC)NC(=O)[C@@H](NC(=O)[C@H](C)NC(C)=O)CSCCC(=O)N5CN6CN(C5)C(=O)CCSC[C@H](NC(=O)[C@H](Cc5ccc(O)cc5)NC(=O)[C@H](CCC(N)=O)NC(=O)CNC4=O)C(=O)N[C@@H](Cc4ccccc4)C(=O)N[C@@H](C)C(=O)N[C@@H](CC(=O)O)C(=O)N4CCC[C@H]4C(=O)N[C@@H](Cc4ccc(O)cc4)C(=O)N[C@@H](CCCC)C(=O)N[C@H](C(=O)N[C@@H](C)C(N)=O)CSCCC6=O)nn3)COCCC(=O)NCCOCCOCCOCCOCCOCCOCCOCCOCCOCCOCCOCCOCCOCCOCCOCCOCCOCCOCCOCCOCCOCCOCCOCCn3cc(CCC(=O)NCCCC[C@@H]4NC(=O)[C@H](CCC(=O)O)NC(=O)[C@H]([C@@H](C)CC)NC(=O)[C@@H](NC(=O)[C@H](C)NC(C)=O)CSCCC(=O)N5CN6CN(C5)C(=O)CCSC[C@H](NC(=O)[C@H](Cc5ccc(O)cc5)NC(=O)[C@H](CCC(N)=O)NC(=O)CNC4=O)C(=O)N[C@@H](Cc4ccccc4)C(=O)N[C@@H](C)C(=O)N[C@@H](CC(=O)O)C(=O)N4CCC[C@H]4C(=O)N[C@@H](Cc4ccc(O)cc4)C(=O)N[C@@H](CCCC)C(=O)N[C@H](C(=O)N[C@@H](C)C(N)=O)CSCCC6=O)nn3)nn1)C(=O)NCC(=O)N[C@@H](CCC(N)=O)C(=O)N[C@@H](Cc1ccc(O)cc1)C(=O)N2 [BCY7838]
systemic elimination (plasma concentration after IV dosing) [1]: retain the property of rapid systemic elimination
Average Fold EC50 Improvement relative to CD137L (CD137 [2]; Average EC50 for CD137L = 14.2 nM): 0.73
Average Relative Fold Induction relative to CD137L (CD137 [2]; Average fold induction for CD137L = 4.0): 2.19
pro-inflammatory cytokine (IL-2, IFNγ) secretion by T-cells [3]: secrete pro-inflammatory cytokines
anti-tumor activity (tumor volume), Study 1 (MC38 syngeneic tumors): elicits a range of anti-tumor activities
lymphocyte numbers (live CD45 positive cells) ([4]; FIG. 12B): no significant difference between treatments on lymphocyte numbers
tumour cell death (live CD45 negative cells) ([4]; in one melanoma patient sample, but not the other, FIG. 12A): significant tumour cell death
cell activity after washout (CD137 [5]): maintain cell activity after washout
